Source: patent US5807700A, “Method of screening anti-amebic agents with an E. coli mutant having a deleted adhE gene complemented by the E. histolytica EhADH2 gene” (Washington University, priority 1995, dated 1998)

Assays:
[1] = target: T1, purified recombinant EhADH2 (Entamoeba histolytica, UniProt Q24803); assay: Substrate specificity and kinetics, ADH activity of purified recombinant EhADH2; assay type: biochemical; conditions: for substrate for the enzyme (ADH reactivity): purified recombinant EhADH2, 1 mM NAD+, pH 9.5
T1 construct: a NcoI site at the initiating ATG codon using PCR with the EhADH2 cDNA as the template; made in house; host or cells: E. coli SHH31(DE3) carrying pET/EhADH2
T1 sequence (Q24803 1-870): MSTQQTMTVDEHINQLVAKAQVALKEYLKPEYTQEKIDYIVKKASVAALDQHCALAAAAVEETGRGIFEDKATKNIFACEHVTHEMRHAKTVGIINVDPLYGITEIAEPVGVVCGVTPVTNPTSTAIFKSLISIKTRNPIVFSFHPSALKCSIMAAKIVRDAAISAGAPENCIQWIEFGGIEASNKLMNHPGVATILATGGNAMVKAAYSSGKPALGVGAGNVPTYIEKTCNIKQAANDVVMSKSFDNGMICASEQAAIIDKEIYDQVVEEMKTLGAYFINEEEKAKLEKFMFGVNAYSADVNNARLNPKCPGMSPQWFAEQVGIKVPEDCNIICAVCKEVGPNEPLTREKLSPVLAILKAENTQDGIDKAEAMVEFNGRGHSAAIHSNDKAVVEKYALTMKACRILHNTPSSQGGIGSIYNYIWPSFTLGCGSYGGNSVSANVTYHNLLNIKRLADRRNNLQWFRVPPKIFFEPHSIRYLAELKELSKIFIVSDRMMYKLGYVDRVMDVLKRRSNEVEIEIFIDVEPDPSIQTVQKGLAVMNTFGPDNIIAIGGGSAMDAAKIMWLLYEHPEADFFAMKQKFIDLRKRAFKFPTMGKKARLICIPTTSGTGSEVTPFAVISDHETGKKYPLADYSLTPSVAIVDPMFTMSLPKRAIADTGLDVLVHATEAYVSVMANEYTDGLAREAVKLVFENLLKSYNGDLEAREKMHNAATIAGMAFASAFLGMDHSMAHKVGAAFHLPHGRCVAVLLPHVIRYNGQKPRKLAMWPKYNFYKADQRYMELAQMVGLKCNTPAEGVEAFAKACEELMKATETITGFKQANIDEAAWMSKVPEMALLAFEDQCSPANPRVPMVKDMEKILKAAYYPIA
Method: (§1) ADH activity of the supernatant fraction from bacterial lysates, or of the purified recombinant enzyme was assayed spectrophotometrically by measuring the decrease in absorbance at 340 nm following the oxidation of NADH to […] (21). The cuvette contained 6 mM DTT, 5 mM MgSO4, 0.1 mM Fe(NH4)2 (SO4)2, 0.4 mM NADH, 10 mM acetaldehyde, and 0.1 M MOPS-KOH buffer (pH 7.5) to give a final volume of 1.0 ml. MOPS=3-[N-Morpholino]propanesulfonic acid; DTT=dithiothreitol.
(§2) To study the substrate specificity and kinetics of the purified recombinant EhADH2 molecule, the spectrophotometric assay of ADH activity was again utilized, with 5 μg of the purified enzyme in the presence of 50 mM glycine/NaOH buffer (pH 9.5) containing 6 mM DTT, 5 mM MgSO4, 0.1 mM Fe(NH4)2 (SO4)2, 1 mM […], and varying concentrations of the substrate alcohol to be tested (11). The Km and Kcat values expressed were determined using non-linear regression to fit the values for initial velocity and substrate concentration to the Michaelis-Menten equation.

native EhADH2 enzyme = target: T2, native EhADH2 enzyme (Entamoeba histolytica, UniProt Q24803); conditions: read-out: Km reported for native EhADH2 enzyme; cited from earlier work
T2 construct: essentially identical to that reported for the native EhADH2 enzyme (80 mM) (11)

recombinant EhADH2 = target: T3, recombinant EhADH2 (Entamoeba histolytica, UniProt Q24803); assay: Inhibition of purified recombinant EhADH2 enzyme (Ki); assay type: biochemical; conditions: read-out: Ki for the recombinant EhADH2 molecule
T3 construct: a NcoI site at the initiating ATG codon using PCR with the EhADH2 cDNA as the template; made in house; host or cells: E. coli SHH31(DE3) carrying pET/EhADH2
T3 sequence (Q24803 1-870): T1 sequence (Q24803 1-870)
Method: as §1, §2

[2] = test system: E. coli SHH31/pMON/EhADH2; assay: EhADH2 inhibition assay: growth of E. coli SHH31 transformed with pMON/EhADH2 (O.D. at 600 nm); assay type: cell-based; conditions: M9 minimal liquid medium, pyrazole 5 to 20 mM, O.D. 600 nm at 24 and 48 hrs
Method: E. coli and E. histolytica strains and culture conditions. Conventional E. coli strains, DH5α, BL21(DE3), and SHH31 (Δadh zch::Tn10 fadR met tyrT) (15) were used for transformation and the expression of recombinant EhADH2. Aerobic cultures were grown in LB medium with agitation at 37° C. For anaerobic growth, bacteria were incubated in anaerobic jars, BBL®GasPak® System under an H2 -CO2 atmosphere generated by BBL GAS PAK Anaerobic System Envelopes (Becton Dickinson, Cockeysville, Md.).
Anaerobic indicator strips were used to ensure anaerobic conditions. M9 minimal medium used for anaerobic growth was supplemented with glucose at 0.25%, thiamine (1 mM), CaCl2 (0.1 mM), MgSO4 (1.2 mM), and the following trace minerals: Fe(50 μM), Se(5 μM), Mo(5 μM), Mn(5 μM) (16).
Anaerobic liquid cultures were grown without agitation in tubes inside the anaerobic jars at 37° C. Solid media contained 1.5% Bacto Agar (Difco, Detroit, Mich.). […]
(§3) E. coli SHH31 transformed with pMON/EhADH2 were inoculated into M9 minimal liquid medium and grown under anaerobic or aerobic conditions in the presence or absence of pyrazole (Sigma Chemical Co., St. Louis, Mo.) at concentrations of 5 to 20 mM. Growth was monitored by determining the optical density (O.D.) at 600 nm at 24 and 48 hrs post-inoculation. […] Viable trophozoites were counted using a hemacytometer at days 2 and 4, and the number of trophozoites/ml recorded.

EhADH1 = target: T4, EhADH1 (Entamoeba histolytica, UniProt P35630); conditions: NADP+-dependent EhADH1; cited from earlier work
T4 sequence (P35630 1-366): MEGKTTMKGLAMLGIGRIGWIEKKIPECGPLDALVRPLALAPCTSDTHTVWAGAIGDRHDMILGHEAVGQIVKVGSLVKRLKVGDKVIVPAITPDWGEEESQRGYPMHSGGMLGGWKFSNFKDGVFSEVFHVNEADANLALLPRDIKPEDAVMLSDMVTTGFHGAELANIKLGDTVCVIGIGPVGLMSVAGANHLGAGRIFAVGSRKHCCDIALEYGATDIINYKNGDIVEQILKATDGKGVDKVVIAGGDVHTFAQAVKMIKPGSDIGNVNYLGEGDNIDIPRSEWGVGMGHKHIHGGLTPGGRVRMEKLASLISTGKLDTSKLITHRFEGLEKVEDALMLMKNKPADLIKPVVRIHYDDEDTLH

[3] = test system: E. histolytica HM1:IMSS trophozoites; assay: Inhibition of E. histolytica growth (viable trophozoite count); assay type: cell-based, Entamoeba histolytica; design: effect on E. histolytica growth: dose or concentration left out as unconfirmed
Method: Anaerobic liquid cultures were grown without agitation in tubes inside the anaerobic jars at 37° C. Solid media contained 1.5% Bacto Agar (Difco, Detroit, Mich.). Trophozoites of E. histolytica HM1:IMSS were cultured axenically in BYI-S-33 medium by conventional procedure as previously described (17).
as §3

E. coli AdhE enzyme = E. coli AdhE enzyme (Escherichia coli, UniProt P0A9Q7); conditions: read-out: Km for the E. coli AdhE enzyme; cited from earlier work
Chain of E. coli AdhE enzyme (P0A9Q7 whole entry): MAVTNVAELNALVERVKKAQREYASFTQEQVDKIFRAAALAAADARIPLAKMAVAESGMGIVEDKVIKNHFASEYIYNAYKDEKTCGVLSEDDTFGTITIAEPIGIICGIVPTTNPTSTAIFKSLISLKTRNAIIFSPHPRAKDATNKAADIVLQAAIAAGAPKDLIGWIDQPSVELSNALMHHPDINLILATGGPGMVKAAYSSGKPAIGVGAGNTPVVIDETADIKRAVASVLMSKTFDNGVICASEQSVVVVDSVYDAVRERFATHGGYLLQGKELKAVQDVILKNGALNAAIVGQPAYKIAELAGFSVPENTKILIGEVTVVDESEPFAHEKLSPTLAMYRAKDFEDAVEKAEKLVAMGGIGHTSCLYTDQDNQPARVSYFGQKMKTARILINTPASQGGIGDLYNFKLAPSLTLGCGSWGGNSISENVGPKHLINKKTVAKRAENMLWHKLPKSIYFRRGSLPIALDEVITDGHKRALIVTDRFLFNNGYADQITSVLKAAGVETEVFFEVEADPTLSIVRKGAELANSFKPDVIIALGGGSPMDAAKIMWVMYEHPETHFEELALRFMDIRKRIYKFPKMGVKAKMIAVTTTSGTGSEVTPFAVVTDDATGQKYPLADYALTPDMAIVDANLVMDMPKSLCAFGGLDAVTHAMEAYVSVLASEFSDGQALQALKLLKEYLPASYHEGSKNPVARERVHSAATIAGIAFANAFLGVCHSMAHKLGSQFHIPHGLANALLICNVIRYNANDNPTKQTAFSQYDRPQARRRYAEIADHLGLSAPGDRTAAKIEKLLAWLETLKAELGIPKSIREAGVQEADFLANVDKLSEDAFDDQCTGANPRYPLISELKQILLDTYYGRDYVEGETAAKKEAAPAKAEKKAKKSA

[4] = substrate: NC(=O)C1=CN([C@@H]2O[C@H](COP(=O)(O)OP(=O)(O)OC[C@H]3O[C@@H](n4cnc5c(N)ncnc54)[C@H](O)[C@@H]3O)[C@@H](O)[C@H]2O)C=CC1; assay: ALDH activity kinetics of purified recombinant EhADH2; assay type: biochemical, Entamoeba histolytica; conditions: other: reaction acetyl-CoA + NADH; pH 9.5
Method: (§4) ALDH activity was assayed using the same method, with the substitution of 0.1 mM acetyl-CoA for acetaldehyde in the reaction buffer. A unit of enzyme activity is defined as the micromoles of product formed per min of incubation at room temperature.
as §2

[5] = substrate: CC(=O)SCCNC(=O)CCNC(=O)[C@H](O)C(C)(C)COP(=O)(O)OP(=O)(O)OC[C@H]1O[C@@H](n2cnc3c(N)ncnc32)[C@H](O)[C@@H]1OP(=O)(O)O; assay: as above; assay type: biochemical, Entamoeba histolytica; conditions: other: reaction acetyl-CoA + NADH; pH 9.5
Method: as §4, §2

[6] = substrate: NC(=O)C1=CN([C@@H]2O[C@H](COP(=O)(O)OP(=O)(O)OC[C@H]3O[C@@H](n4cnc5c(N)ncnc54)[C@H](O)[C@@H]3O)[C@@H](O)[C@H]2O)C=CC1; assay: Substrate specificity and kinetics, ADH activity of purified recombinant EhADH2; assay type: biochemical, Entamoeba histolytica; conditions: other: reaction acetaldehyde + NADH
Method: (§5) To study the substrate specificity and kinetics of the purified recombinant EhADH2 molecule, the spectrophotometric assay of ADH activity was again utilized, with 5 μg of the purified enzyme in the presence of 50 mM glycine/NaOH buffer (pH 9.5) containing 6 mM DTT, 5 mM MgSO4, 0.1 mM Fe(NH4)2 (SO4)2, 1 mM AND^+, and varying concentrations of the substrate alcohol to be tested (11). The Km and Kcat values expressed were determined using non-linear regression to fit the values for initial velocity and substrate concentration to the Michaelis-Menten equation.

[7] = substrate: CC=O; assay: as above; assay type: biochemical, Entamoeba histolytica; conditions: other: reaction acetaldehyde + NADH
Method: as §5

[8] = substrate: CCO; assay: as above; assay type: biochemical, Entamoeba histolytica; conditions: other: reaction ethanol + NAD+
Method: as §5

[9] = substrate: CCCO; assay: as above; assay type: biochemical, Entamoeba histolytica; conditions: other: reaction 1-propanol + NAD+
Method: as §5

CCC(C)O (stereo not drawn) [sec-butanol]
substrate for the enzyme (ADH reactivity) [1]: No reactivity

CC=O [acetaldehyde]
Km (native EhADH2 enzyme): 150 µM

CC1=C(/C=C/C(C)=C/C=C/C(C)=C/CO)C(C)(C)CCC1 [retinol]
substrate for the enzyme (ADH reactivity) [1]: neither retinol nor methanol were substrates

NC(=O)c1ccc[n+]([C@@H]2O[C@H](COP(=O)(O)OP(=O)(O)OC[C@H]3O[C@@H](n4cnc5c(N)ncnc54)[C@H](O)[C@@H]3O)[C@@H](O)[C@H]2O)c1 [NAD^+]
Km ([1]; reaction 1-propanol + NAD+): 250 µM | Km ([1]; reaction ethanol + NAD+): 550 µM

c1cn[nH]c1 [pyrazole]
Ki (recombinant EhADH2): 7.24 mM | effect on growth under aerobic conditions ([2]; aerobic): much reduced effect | inhibition of anaerobic growth of SHH31/pMON/EhADH2 ([2]; anaerobic): in a dose-dependent manner significantly inhibited | Ki (EhADH1): 0.0014 mM | effect on E. histolytica growth [3]: no effect | inhibition of growth of E. histolytica trophozoites ([3]; concentration of 20 to 40 mM, viable trophozoites at days 2 and 4): significantly inhibited amebic growth

CCO [ethanol]
Km (native EhADH2 enzyme): 80000 µM | Km (E. coli AdhE enzyme): 30000 µM

CC(C)O [isopropanol]
substrate for the enzyme (ADH reactivity) [1]: No reactivity

CO [methanol]
substrate for the enzyme (ADH reactivity) [1]: neither retinol nor methanol were substrates

B1: purified recombinant EhADH2 (Entamoeba histolytica HM-1:IMSS) (protein)
chain: T1 sequence (Q24803 1-870)
notes: a NcoI site at the initiating ATG codon using PCR with the EhADH2 cDNA as the template; made in house; host or cells: E. coli SHH31(DE3) carrying pET/EhADH2
Km [4]: 170 µM | Km [5]: 40 µM | Km [6]: 280 µM | Km [7]: 2900 µM | Km [8]: 85000 µM | Km [9]: 40000 µM
